Data as given in ChEMBL document CHEMBL1136735, “Design and synthesis of naphthalenic dimers as selective MT1 melatoninergic ligands” (J Med Chem, 2003).
The source made the active and inactive calls. The calls are words filed in the database; no cut-off is given here.

Experiments:
[1] = molecular target: T1, Melatonin receptor type 1B (Homo sapiens, UniProt P49286); experiment: Binding affinity for human Melatonin receptor type 1B stably transfected in human embryonic kidney cells (HEK 293) using 2-[125I]iodomelatonin as radioligand; assay type: cell-based, HEK293
T1 sequence (P49286 whole entry): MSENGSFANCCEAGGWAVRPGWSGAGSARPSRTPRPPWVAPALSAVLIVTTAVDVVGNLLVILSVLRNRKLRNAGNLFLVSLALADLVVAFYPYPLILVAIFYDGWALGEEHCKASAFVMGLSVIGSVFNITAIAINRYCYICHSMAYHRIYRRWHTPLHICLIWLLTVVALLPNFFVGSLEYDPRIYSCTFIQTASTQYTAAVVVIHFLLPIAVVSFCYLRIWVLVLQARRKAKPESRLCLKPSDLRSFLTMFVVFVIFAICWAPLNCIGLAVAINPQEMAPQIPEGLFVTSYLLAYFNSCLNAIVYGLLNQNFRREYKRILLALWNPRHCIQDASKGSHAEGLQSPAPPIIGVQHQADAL

[2] = molecular target: T2, Melatonin receptor type 1A (Homo sapiens, UniProt P48039); experiment: Binding affinity for human Melatonin receptor type 1A stably transfected in human embryonic kidney cells (HEK 293) using 2-[125I]iodomelatonin as radioligand; assay type: cell-based, HEK293
[3] = molecular target: T3, Melatonin receptor type 1B (Homo sapiens) (UniProt P49286); details: CHO
T3 sequence (whole entry): T1 sequence (P49286 whole entry)

[4] = molecular target: T2, Melatonin receptor type 1A; details: CHO

T2 sequence (P48039 whole entry): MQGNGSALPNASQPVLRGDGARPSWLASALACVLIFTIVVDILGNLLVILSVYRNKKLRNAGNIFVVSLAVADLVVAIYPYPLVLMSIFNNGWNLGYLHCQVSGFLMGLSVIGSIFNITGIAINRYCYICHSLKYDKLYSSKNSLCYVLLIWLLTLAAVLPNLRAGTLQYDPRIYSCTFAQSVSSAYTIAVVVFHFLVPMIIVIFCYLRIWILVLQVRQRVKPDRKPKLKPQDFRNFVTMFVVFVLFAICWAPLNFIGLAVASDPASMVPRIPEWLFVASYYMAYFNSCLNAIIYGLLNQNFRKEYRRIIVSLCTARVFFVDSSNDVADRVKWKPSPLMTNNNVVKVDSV

Ki [1] [nM]	Ki [2] [nM]	IA [3]	IA [4]	Compound
2.33	0.08	–	–	CC(=O)NCCc1cccc2ccc(OCCCCCCOc3ccc4cccc(CCNC(C)=O)c4c3)cc12
72.7	0.6	–	–	CC(=O)NCCc1cccc2ccc(OCCCCOc3ccc4cccc(CCNC(C)=O)c4c3)cc12
182	2.05	–	–	CC(=O)NCCc1cccc2ccc(OCCOc3ccc4cccc(CCNC(C)=O)c4c3)cc12
112	0.5	inactive	inactive	CC(=O)NCCc1cccc2ccc(OCCCOc3ccc4cccc(CCNC(C)=O)c4c3)cc12
0.04	0.03	–	–	CC(=O)NCCc1cccc2ccc(OCCCCCCCCCCOc3ccc4cccc(CCNC(C)=O)c4c3)cc12
1.74	0.05	–	–	CC(=O)NCCc1cccc2ccc(OCCCCCOc3ccc4cccc(CCNC(C)=O)c4c3)cc12
0.18	0.05	–	–	CC(=O)NCCc1cccc2ccc(OCCCCCCCCOc3ccc4cccc(CCNC(C)=O)c4c3)cc12
